The record followed here is patent US10358469B2, “Methods and pharmaceutical compositions for the treatment of cancer” (INSERM (INSTITUT NATIONAL DE LA SANTÉ ET DE LA RECHERCHE …, priority 2014, dated 2019).

The experiment has as its system human triple-negative breast cancer xenograft PDX01. Put plainly: Triple-negative breast cancer patient-derived xenograft PDX01 in nude mice. It is filed as in vivo. Particulars: 2.4 mg/kg i.p., 7 daily injections, FIG. 8B. The procedure: Breast cancer fragments were obtained from patients at the time of surgery, with informed written patient consent. After imaging-guided human tumor biopsies had been performed, fragments of 30 to 60 mm^3 were subcutaneously grafted in 6-week-old NMRI-nude mice (Centre-Elevage-Janvier, France), under xylasin (10 mg/kg)/ketamin (100 mg/kg) anesthesia. Mice were maintained in specific pathogen-free animal housing (Institut Universitaire d'Hematologie) and received estrogen (17 mg/mL) diluted in drinking water. Xenografts were characterized and subsequently subcutaneously transplanted from mouse to mouse. […] Two human triple-negative breast cancer (HBC) xenografts models were used in our experiments (PDX01 and PDX02). […] Following transplantation (n=6 per model) tumor growth was assessed by measuring tumor size in two dimension using a Vernier caliper. Tumor volume was calculated using the formula [3.14×long axis×short axis×short axis]/6 (Kjonniksen et al., 1989). […] Mice were weighted and the tumor size was measured by a caliper and recorded daily. Fourteen days after beginning of the treatment mice were sacrificed. The tumors, kidney, lungs, heart, liver, pancreas and spleen were taken and fixed. Paraffin-embedded sections were prepared and stained with hematoxylin and eosin for histological analysis.
On the technique in general: Xenograft models place foreign cells or tissue in a host animal.

As to “Ac-RQIKIWFKKQNRRMKWKKAKLNAEKLKDFKIRLQYFARGLQVYIRQLRLALQGKT-NH2 [Antp-AAC-11-LZ (363-399)]”, the “tumor size versus vehicle” value was “significantly smaller tumors”.
